Patent publication US5952008A, “Processes for preparing compositions for inhalation” (AB Astra, priority 1993, dated 1999)

Columns and labels:
[1] = Inhalation of insulin/enhancer powder in rats, blood glucose monitored as measure of insulin uptake; type: in vivo, rat; conditions: for Effect (enhancement of insulin uptake, blood glucose level): rats, inhaled powder; for Enhancement of polypeptide (insulin) absorption in the lung, result in words: rat model
Description: Each of the compounds listed in Table I was tested for its ability to enhance uptake of a polypeptide (insulin) in a rat model.
Various forms of insulin were employed in the different trials: recombinant human, semisynthetic human or bovine. Each formulation was prepared as above, drying and processing the insulin/enhancer or insulin/enhancer/lactose solution to produce an inhalable powder. The powder was administered to rats by inhalation, and the blood glucose levels of the rats were subsequently monitored as a measure of insulin uptake. These levels were compared to the corresponding values obtained from rats which had inhaled insulin formulations without enhancer.

[2] = tested on: CaCo-2 epithelial cell monolayer; experiment: In vitro CaCo-2 epithelial cell monolayer transport assay; type: in vitro ADME; conditions: for Transport rate across the monolayer with enhancer, in words: up to 16 mM sodium caprate
Description: A standard in vitro assay utilizing an epithelial cell line, CaCo-2 (available through the American Type Culture Collection (ATCC), Rockville, Md., USA), has been developed to assess the ability of various enhancer compounds to promote transport of markers across an epithelial cell monolayer, as a model for the epithelial cell layer which functions in the lung to separate the alveolus from the pulmonary blood supply.
In this assay, the enhancer and polypeptide or other marker are dissolved in aqueous solution at various proportions and/or concentrations, and applied to the apical side of the cell monolayer. After 60 min incubation at 37° C. and 95% RH (relative humidity), the amount of the marker on the basolateral side of the cells is determined, e.g., by use of a radioactively labelled marker.

[3] = Enhancer:Insulin:lactose 2:4:94
[4] = Enhancer:Insulin:lactose 4:4:92
[5] = Enhancer:Insulin:lactose 25:75:0

Compound	Enhancement of polypeptide (insulin) absorption in the lung, result in words [1]	Effect (enhancement of insulin uptake, blood glucose level) [1, 4]	further results
CCCCCCCC(=O)OCC(COP(=O)([O-])OCC[N+](C)(C)C)OC(=O)CCCCCCC (stereo not shown) [Dioctanoylphosphatidylcholine]			Effect (enhancement of insulin uptake, blood glucose level) [1, 3]: (+); Effect (enhancement of insulin uptake, blood glucose level) ([1]; Enhancer:Insulin:lactose 4:4:94): -
O=C(O)CN(CCN(CC(=O)O)CC(=O)O)CC(=O)O [EDTA, ethylenediaminetetraacetic acid]	ineffective		
CCCCCCCCOC1O[C@H](CO)[C@@H](O)[C@H](O)[C@H]1O (stereo partly shown) [Octylglucopyranoside]	some absorption enhancing properties	(+)	
CCCCCCCCCC(=O)[O-].[K+] [Potassium caprate]	effective		Effect (enhancement of insulin uptake, blood glucose level) ([1]; Enhancer:Insulin:lactose 27:73:0): +
CCCCCCCC/C=C\CCCCCCCC(=O)[O-].[K+] [Potassium oleate]		+	
CCCCCCCCCC(=O)[O-].[Na+] [Sodium caprate]	perform well		Effect (enhancement of insulin uptake, blood glucose level) ([1]; Enhancer:Insulin:lactose 10:90:0): (+); Effect (enhancement of insulin uptake, blood glucose level) ([1]; Enhancer:Insulin:lactose 17.5:82.5:0): (+); Effect (enhancement of insulin uptake, blood glucose level) [1, 5]: +; Amount of marker (mannitol) appearing on the basolateral side, insulin added ([2]; 1:3 sodium caprate:insulin by weight, FIG. 2): dependent upon the concentration of enhancer used; Amount of marker (mannitol) appearing on the basolateral side ([2]; sodium caprate up to 16 mM, 60 min, 37° C., FIG. 1): dependent upon the concentration of enhancer used
CCCCCCCC(=O)[O-].[Na+] [Sodium caprylate]			Effect (enhancement of insulin uptake, blood glucose level) [1, 5]: -
C[C@H](CCC(=O)NCC(=O)O)[C@H]1CC[C@H]2[C@@H]3[C@H](O)C[C@@H]4C[C@H](O)CC[C@]4(C)[C@H]3C[C@H](O)[C@]12C [Sodium glycocholate]	effectively enhance polypeptide absorption in the lung	+	
CCCCCCCCCCCC(=O)[O-].[Na+] [Sodium laurate]	perform well		Effect (enhancement of insulin uptake, blood glucose level) [1, 5]: +
CCCCCCCCCCCCCC(=O)[O-].[Na+] [Sodium myristate]	perform well		Effect (enhancement of insulin uptake, blood glucose level) ([1]; Enhancer:Insulin:lactose 30:70:0): +
CC(=O)OC1CC2(C)C(CC(O)C3C4(C)CCC(O)C(C)C4CCC32C)C1=C(CCCC(C)C)C(=O)NCCS(=O)(=O)O (stereo not shown) [Sodium tarodihydrofusidate]	effectively enhance polypeptide absorption in the lung		Effect (enhancement of insulin uptake, blood glucose level) [1, 3]: +
C[C@H](CCC(=O)NCCS(=O)(=O)O)[C@H]1CC[C@H]2[C@@H]3[C@H](O)C[C@@H]4C[C@H](O)CC[C@]4(C)[C@H]3C[C@H](O)[C@]12C [Sodium taurocholate]	effectively enhance polypeptide absorption in the lung	+	
C[C@H](CCC(=O)O)[C@H]1CC[C@H]2[C@@H]3[C@@H](O)C[C@@H]4C[C@H](O)CC[C@]4(C)[C@H]3CC[C@]12C [Sodium ursodeoxycholate]	effectively enhance polypeptide absorption in the lung	+	
NC(=O)CC[C@@H]1NC(=O)[C@H](Cc2ccccc2)NC(=O)[C@H](Cc2ccc(O)cc2)NC(=O)[C@@H](N)CSSC[C@@H](C(=O)N2CCC[C@H]2C(=O)N[C@@H](CCCN=C(N)N)C(=O)NCC(N)=O)NC(=O)[C@H](CC(N)=O)NC1=O [vasopressin]			Increase in amount absorbed across the monolayer compared to absence of enhancer ([2]; 16 mM sodium caprate): 10-15 times
Dimethyl-β-cyclodextrin	absorption enhancing effect		Effect (enhancement of insulin uptake, blood glucose level) ([1]; Enhancer:Insulin:lactose 75:25:0): +
Lysine caprate	effective		Effect (enhancement of insulin uptake, blood glucose level) ([1]; Enhancer:Insulin:lactose 35:65:0): +
Lysophosphatidylcholine	effective enhancer	+	
albumin			Transport rate across the monolayer with enhancer, in words [2]: no increase in transport rate
carbonic anhydrase			Transport rate across the monolayer with enhancer, in words [2]: no increase in transport rate
cytochrome C			Transport rate across the monolayer with enhancer, in words [2]: no increase in transport rate
